Results: patent US20250034161A1, “SPIROCYCLIC COMPOUND AS KRAS-G12C INHIBITOR” (Shanghai Euregen Biopharma Co., Ltd., priority 2020, published 2025)

Assays:
CYP 2C8 = biological target: T1, CYP 2C8 (Homo sapiens, UniProt P10632); experiment: CYP inhibition test, human liver microsomes, CYP2C8
T1 sequence (P10632 1-490): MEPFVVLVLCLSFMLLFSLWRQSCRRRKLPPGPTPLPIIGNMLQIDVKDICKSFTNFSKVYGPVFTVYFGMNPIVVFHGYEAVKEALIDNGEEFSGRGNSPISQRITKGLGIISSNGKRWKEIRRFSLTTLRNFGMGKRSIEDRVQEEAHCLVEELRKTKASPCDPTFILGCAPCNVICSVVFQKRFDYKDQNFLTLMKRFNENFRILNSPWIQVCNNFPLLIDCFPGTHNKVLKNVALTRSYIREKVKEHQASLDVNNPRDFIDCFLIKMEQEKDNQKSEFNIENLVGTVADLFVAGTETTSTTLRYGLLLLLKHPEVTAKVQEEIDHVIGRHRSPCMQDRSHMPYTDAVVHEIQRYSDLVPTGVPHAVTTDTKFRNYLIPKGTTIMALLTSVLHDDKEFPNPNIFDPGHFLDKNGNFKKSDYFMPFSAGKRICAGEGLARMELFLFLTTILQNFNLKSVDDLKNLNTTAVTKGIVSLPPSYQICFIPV
Procedure: • 1. Test purpose: to evaluate the inhibitory ability of some of the example compounds of the present invention against CYP1A2, 2B6, 2C8, 2C9, 2C19, 2D6 and 3A4 via human liver microsomes. • 2. […] Test method:
• 1. K/Mg buffer: the components were 0.1 mol/L potassium phosphate and 5 mmol/L magnesium chloride with pH 7.4±0.1, preheated. • 2. Solution of the test compound: the test compound was dissolved in dimethyl sulfoxide to prepare a stock solution of 10 mmol/L. 8 μL of 10 mmol/L stock solution was transferred to a 96-well plate containing 12 μL of acetonitrile as the highest concentration point, at 3-fold dilution, for 8 concentrations. • 3. NADPH solution: 66.7 mg of NADPH was dissolved in 10 mL of 0.1 mol/L K/Mg buffer to obtain 8 mmol/L NADPH solution with pH 7.4. • 4. Human liver microsomal stock solution: human liver microsomes were dissolved in 0.1 mol/L K/Mg buffer to obtain 20 mg/mL stock solution. • 5. Human liver microsomal working solution: 10 μL of 20 mg/mL human liver microsomal stock solution was taken and added into 990 μL of 0.1 mol/L K/Mg buffer to prepare 0.2 mg/mL human liver microsomal solution. • 6. […]

[1] = Plasma protein binding assay (equilibrium dialysis), human plasma; assay type: in vitro ADME; details: pH 7.4, equilibrium dialysis 5 hours, read-out: Plasma protein binding rate (%) (converted)
Procedure: • 1. Test purpose: to evaluate the protein binding rate of the test compound in human, dog, monkey, rat and mouse plasma by equilibrium dialysis; • 2. […] Experimental methods: • 0.1 mol/L sodium phosphate and 0.15 mol/L sodium chloride buffer with pH 7.4±0.1 was preheated;
Preparation of plasma containing test substance: the test compound was dissolved in DMSO to prepare a 10 mmol/l stock solution. 5 μL of stock solution was taken and diluted with 95 μL of acetonitrile to obtain solution A (0.5 mmol/L). 8 μL of solution A was taken and diluted with 192 μL of 0.1 mol/L sodium phosphate buffer to obtain solution B (0.02 mmol/L). 570 μL of plasma was added into a 96-well plate followed by the addition of 30 μL of solution B. The final concentration was 1 μmol/L with 0.01% DMSO.
The plate was shook at 600 rpm for 10 minutes, covered and stored in a freezer (−20° C.).
T5 sample preparation (in triplicate): the dialysis device was added with 100 μL of buffer on its receiver side and 100 μL of plasma containing the test compound on its doner side. And the dialysis device was then shook at 37° C. and 120 rpm for 5 hours. At the end of culture, 25 μL of plasma containing the test substance was taken from the plasma side and then added to a 96-well plate, followed by the addition of 25 μL of buffer and 200 μL of acetonitrile solution containing internal standard. […]

| Structure (SMILES) | IC50 (CYP 2C8) | fraction unbound at 5 h, 1 μmol/L [1] |
| --- | --- | --- |
| C=CC(=O)N1CCN(c2nc(=O)n(-c3c(C)ccnc3C(C)C)c3nc(-c4c(O)cccc4F)c(F)cc23)[C@@H](C)C1 [AMG510] | > 10 µM | 0.075 |
| C=C(F)C(=O)N1CCN(c2nc(OC[C@@H]3CCCN3C)nc3c2CCN(c2cccc4cccc(Cl)c24)C3)C[C@@H]1CC#N [MRTX849] | > 10 µM | 0.018 |
